Read-outs that look alike come from different tables or passages of the source. Where a SMILES comes first, the peptide text is derived from it. Bridges are numbered along the chain shown (N, C = ends). [ ]: non-standard residue; d: D form. The star is where a group is joined. Ileψ(thiazoline)Cys = CC[C@H](C)[C@H](N)C1=N[C@H](C(=O)*)CS1; dOrn = NCCC[C@@H](N)C(=O)O
Legend:
[1] = test system: T. gondii RH strain (RH-Tub-eYFP) tachyzoites; experiment: microbe, parasite or virus in culture; type: cell-based, Toxoplasma gondii; settings: 72 h, 72 h; for percent parasite growth at 2 µg/mL: Toxoplasma gondii
[2] = test system: P. falciparum 3D7 parasites; experiment: P. falciparum growth inhibition assay, 1-cycle (72 h treatment), SYBR DNA staining (library screen at 2 μg/mL and dose-response); type: cell-based, Plasmodium falciparum; settings: for activity at 2 µg/mL: Plasmodium falciparum
[3] = test system: P. falciparum 3D7 parasites; experiment: P. falciparum growth inhibition assay, 2-cycle (120 h treatment), delayed-death screen and dose-response; type: cell-based, Plasmodium falciparum; settings: for activity at 2 µg/mL: Plasmodium falciparum
[4] = T. gondii, screen at 2 μg/mL, replicate 1
[5] = T. gondii, screen at 2 μg/mL, replicate 2
[6] = P. falciparum, 72 h, screen at 2 μg/mL, replicate 1
[7] = P. falciparum, 72 h, screen at 2 μg/mL, replicate 2
[8] = P. falciparum, 120 h, screen at 2 μg/mL, replicate 1
[9] = P. falciparum, 120 h, screen at 2 μg/mL, replicate 2
[10] = T. gondii, parasite screen at 2 μg/mL, % growth, replicate 1
[11] = T. gondii, parasite screen at 2 μg/mL, % growth, replicate 2
[12] = P. falciparum 3D7, 72 h, parasite screen at 2 μg/mL, % growth, replicate 1
[13] = P. falciparum 3D7, 72 h, parasite screen at 2 μg/mL, % growth, replicate 2
[14] = P. falciparum 3D7, 120 h, parasite screen at 2 μg/mL, % growth, replicate 1
[15] = P. falciparum 3D7, 120 h, parasite screen at 2 μg/mL, % growth, replicate 2

`CC[C@H](C)[C@H](N)C1=N[C@H](C(=O)N[C@@H](CC(C)C)C(=O)N[C@H](CCC(=O)O)C(=O)N[C@H](C(=O)N[C@H]2CCCCNC(=O)[C@H](CC(N)=O)NC(=O)[C@@H](CC(=O)O)NC(=O)[C@H](Cc3cnc[nH]3)NC(=O)[C@@H](Cc3ccccc3)NC(=O)[C@H]([C@@H](C)CC)NC(=O)[C@@H](CCCN)NC2=O)[C@@H](C)CC)CS1` [Bacitracin A] ({Ileψ(thiazoline)Cys}-L[dE]IK[dOrn]I[dF]H[dD]N; lactam 4-C) showed a percent parasite growth at 2 µg/mL ([1]; library screen at 2 μg/mL, % growth, replicate 1, read-out: Tg_72h_%Growth_Rep1) of 81.4%, a percent parasite growth at 2 µg/mL ([1]; library screen at 2 μg/mL, % growth, replicate 2, read-out: Tg_72h_%Growth_Rep2) of 89.8% and an activity at 2 µg/mL ([2]; 3D7, library screen at 2 μg/mL, 72 h, % growth, replicate 1, read-out: Pf_72h_%Growth_Rep1) of 27.2%. It also gave an activity at 2 µg/mL ([2]; 3D7, library screen at 2 μg/mL, 72 h, % growth, replicate 2, read-out: Pf_72h_%Growth_Rep2) of 89.3%, an activity at 2 µg/mL ([3]; 3D7, library screen at 2 μg/mL, 120 h, % growth, replicate 1, read-out: Pf_120h_%Growth_Rep1) of 59.9% and an activity at 2 µg/mL ([3]; 3D7, library screen at 2 μg/mL, 120 h, % growth, replicate 2, read-out: Pf_120h_%Growth_Rep2) of 94.6%.
Compound `CN[C@@H]1C[C@H]2O[C@@](C)([C@@H]1OC)n1c3ccccc3c3c4c(c5c6ccccc6n2c5c31)C(=O)N[C@H]4O` [UCN-01] has a Tg_72h_%Growth_Rep1 [1, 4] of 1.44%, a Tg_72h_%Growth_Rep2 [1, 5] of 1.53% and a Pf_72h_%Growth_Rep1 [2, 6] of 0.68%. For the same compound, the Pf_72h_%Growth_Rep2 [2, 7] was -0.50%, the Pf_120h_%Growth_Rep1 [3, 8] was 24.61% and the Pf_120h_%Growth_Rep2 [3, 9] was 12.22%.
`CC1=CCC2CC(CC3(CCC(C)C(C)O3)O2)OC(=O)C2C=C(C)C(=NO)C3OCC(=CC=CC(C)C1)C23O` (stereo not drawn) [BIA-M1531] was tested, and the Tg_72h_%Growth_Rep1 [1, 10] was 75.89%, the Tg_72h_%Growth_Rep2 [1, 11] was 79.64% and the Pf_72h_%Growth_Rep1 [2, 12] was 53.63%. For the same compound, the Pf_72h_%Growth_Rep2 [2, 13] was 28.47%, the Pf_120h_%Growth_Rep1 [3, 14] was 36.91% and the Pf_120h_%Growth_Rep2 [3, 15] was 51.60%.
`CC1(C)C[C@]23[C@@H]4COC(=O)[C@H]2CC[C@H]1[C@@H]3CC4=O` [Quadrone] showed a percent parasite growth at 2 µg/mL ([1]; T. gondii, parasite screen 2 μg/mL, % growth, replicate 1, read-out: Tg_72h_%Growth_Rep1) of 48.4%, a percent parasite growth at 2 µg/mL ([1]; T. gondii, parasite screen 2 μg/mL, % growth, replicate 2, read-out: Tg_72h_%Growth_Rep2) of 61.5% and an activity at 2 µg/mL ([2]; 3D7, P. falciparum, 72 h, parasite screen 2 μg/mL, % growth, replicate 1, read-out: Pf_72h_%Growth_Rep1) of 19%. It also gave an activity at 2 µg/mL ([2]; 3D7, P. falciparum, 72 h, parasite screen 2 μg/mL, % growth, replicate 2, read-out: Pf_72h_%Growth_Rep2) of 18.9%, an activity at 2 µg/mL ([3]; 3D7, P. falciparum, 120 h, parasite screen 2 μg/mL, % growth, replicate 1, read-out: Pf_120h_%Growth_Rep1) of 7% and an activity at 2 µg/mL ([3]; 3D7, P. falciparum, 120 h, parasite screen 2 μg/mL, % growth, replicate 2, read-out: Pf_120h_%Growth_Rep2) of 13.5%.
Chaetomin gave a Tg_72h_%Growth_Rep1 [1, 4] of 114.47%, a Tg_72h_%Growth_Rep2 [1, 5] of 90.87% and a Pf_72h_%Growth_Rep1 [2, 6] of 58.72%. It also gave a Pf_72h_%Growth_Rep2 [2, 7] of 55.68%, a Pf_120h_%Growth_Rep1 [3, 8] of 45.75% and a Pf_120h_%Growth_Rep2 [3, 9] of 45.66%.
Work on `CC(=O)c1c(O)cc(O)cc1O` [BIA-M1378] yielded a Tg_72h_%Growth_Rep1 [1, 10] of 125.07%, a Tg_72h_%Growth_Rep2 [1, 11] of 89.41% and a Pf_72h_%Growth_Rep1 [2, 12] of 82.52%. It also gave a Pf_72h_%Growth_Rep2 [2, 13] of 84.34%, a Pf_120h_%Growth_Rep1 [3, 14] of 82.35% and a Pf_120h_%Growth_Rep2 [3, 15] of 134.53%.
With `COc1ccc(Cl)c(C)c1C(=O)O[C@@H]1C[C@H](O[C@H]2[C@H](O)C[C@H](O[C@H]3CCC[C@@H]4[C@@H]3C=C[C@H]3CCCC/C=C/[C@@H]5C=C(C(=O)O)[C@H](C)C[C@]56OC(=O)C(=C6O)OC(=O)[C@@]43C)O[C@@H]2C)O[C@H](C)[C@H]1O` [Chlorothricin] the Tg_72h_%Growth_Rep1 [1, 4] was 75.08%, the Tg_72h_%Growth_Rep2 [1, 5] was 94.25% and the Pf_72h_%Growth_Rep1 [2, 6] was 106.01%. It also gave a Pf_72h_%Growth_Rep2 [2, 7] of 86.61%, a Pf_120h_%Growth_Rep1 [3, 8] of 151.59% and a Pf_120h_%Growth_Rep2 [3, 9] of 96.98%.
In the case of `CNc1ccc2oc(C[C@H]3O[C@@]4(CC[C@H]3C)O[C@H]([C@H](C)C(=O)c3ccc[nH]3)[C@H](C)C[C@H]4C)nc2c1C(=O)O` [Calcimycin], the percent parasite growth at 2 µg/mL ([1]; T. gondii, screen at 2 μg/mL, replicate 1, read-out: Tg_72h_%Growth_Rep1) is reported as 1.82%, the percent parasite growth at 2 µg/mL ([1]; T. gondii, screen at 2 μg/mL, replicate 2, read-out: Tg_72h_%Growth_Rep2) is reported as 1.52% and the activity at 2 µg/mL ([2]; 3D7, 72 h, P. falciparum, 72 h, screen at 2 μg/mL, replicate 1, read-out: Pf_72h_%Growth_Rep1) is reported as 13.1%. For the same compound, the activity at 2 µg/mL ([2]; 3D7, 72 h, P. falciparum, 72 h, screen at 2 μg/mL, replicate 2, read-out: Pf_72h_%Growth_Rep2) was 6.23%, the activity at 2 µg/mL ([3]; 3D7, 120 h, P. falciparum, 120 h, screen at 2 μg/mL, replicate 1, read-out: Pf_120h_%Growth_Rep1) was 11.6% and the activity at 2 µg/mL ([3]; 3D7, 120 h, P. falciparum, 120 h, screen at 2 μg/mL, replicate 2, read-out: Pf_120h_%Growth_Rep2) was 3.04%.
`COC1CC(OC2C(C)OC(OC3C(C)=CCC4CC(CC5(CCC(C)C(C(C)C)O5)O4)OC(=O)C4C=C(C)C(O)C5OCC(=CC=CC3C)C45O)CC2OC)OC(C)C1O` (stereo not drawn) [BIA-I1117] showed a Tg_72h_%Growth_Rep1 ([1]; T. gondii RH, library screen at 2 μg/mL, % growth, replicate 1) of 121.89%, a Tg_72h_%Growth_Rep2 ([1]; T. gondii RH, library screen at 2 μg/mL, % growth, replicate 2) of 92.41% and a Pf_72h_%Growth_Rep1 ([2]; P. falciparum 3D7, 72 h, library screen at 2 μg/mL, % growth, replicate 1) of 83.64%. For the same compound, the Pf_72h_%Growth_Rep2 ([2]; P. falciparum 3D7, 72 h, library screen at 2 μg/mL, % growth, replicate 2) was 117.79%, the Pf_120h_%Growth_Rep1 ([3]; P. falciparum 3D7, 120 h, library screen at 2 μg/mL, % growth, replicate 1) was 88.89% and the Pf_120h_%Growth_Rep2 ([3]; P. falciparum 3D7, 120 h, library screen at 2 μg/mL, % growth, replicate 2) was 109.63%.
